Columns and labels:
Format in all cases: cell-based
[1] = molecular target: T1, hPPARδ (Homo sapiens, UniProt Q03181); assay: In vitro co-transfection (PPRE-luciferase) assay in CV-1 cells, hPPARδ
T1 construct: expressed in transfected cells; host or cells: CV-1 monkey kidney cells
T1 sequence (Q03181 1-441): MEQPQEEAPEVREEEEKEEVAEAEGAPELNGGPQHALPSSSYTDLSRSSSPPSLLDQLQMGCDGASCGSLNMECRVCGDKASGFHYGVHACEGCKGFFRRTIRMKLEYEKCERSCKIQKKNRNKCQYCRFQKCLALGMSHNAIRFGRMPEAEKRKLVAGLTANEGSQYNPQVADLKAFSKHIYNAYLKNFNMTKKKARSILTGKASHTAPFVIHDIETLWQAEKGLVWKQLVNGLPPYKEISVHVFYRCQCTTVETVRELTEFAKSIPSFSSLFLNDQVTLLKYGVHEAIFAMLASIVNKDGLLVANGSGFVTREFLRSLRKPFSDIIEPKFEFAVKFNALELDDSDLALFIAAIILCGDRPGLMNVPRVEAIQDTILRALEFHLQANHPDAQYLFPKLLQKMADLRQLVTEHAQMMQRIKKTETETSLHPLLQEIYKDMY

[2] = molecular target: T2, hPPARα (Homo sapiens, UniProt Q07869); assay: In vitro co-transfection (PPRE-luciferase) assay in CV-1 cells, hPPARα; conditions: 24 h, read-out: Potency (EC50) hPPARα
T2 sequence (Q07869 1-468): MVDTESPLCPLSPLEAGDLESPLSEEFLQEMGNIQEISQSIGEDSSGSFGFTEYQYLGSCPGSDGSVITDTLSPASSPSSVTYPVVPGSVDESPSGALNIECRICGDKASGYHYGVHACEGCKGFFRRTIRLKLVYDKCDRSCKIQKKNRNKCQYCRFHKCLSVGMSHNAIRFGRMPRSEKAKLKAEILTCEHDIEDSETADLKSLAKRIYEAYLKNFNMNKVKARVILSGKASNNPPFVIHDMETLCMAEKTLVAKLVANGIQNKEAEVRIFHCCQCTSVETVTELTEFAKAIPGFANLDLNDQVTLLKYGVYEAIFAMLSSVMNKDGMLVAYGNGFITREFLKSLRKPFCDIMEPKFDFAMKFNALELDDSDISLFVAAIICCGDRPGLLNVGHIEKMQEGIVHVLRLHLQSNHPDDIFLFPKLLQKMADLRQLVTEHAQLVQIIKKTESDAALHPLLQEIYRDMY

[3] = molecular target: T3, hPPARγ (Homo sapiens, UniProt P37231); assay: In vitro co-transfection (PPRE-luciferase) assay in CV-1 cells, hPPARγ; conditions: 24 h, read-out: Potency (EC50) hPPARγ
T3 sequence (P37231 1-505): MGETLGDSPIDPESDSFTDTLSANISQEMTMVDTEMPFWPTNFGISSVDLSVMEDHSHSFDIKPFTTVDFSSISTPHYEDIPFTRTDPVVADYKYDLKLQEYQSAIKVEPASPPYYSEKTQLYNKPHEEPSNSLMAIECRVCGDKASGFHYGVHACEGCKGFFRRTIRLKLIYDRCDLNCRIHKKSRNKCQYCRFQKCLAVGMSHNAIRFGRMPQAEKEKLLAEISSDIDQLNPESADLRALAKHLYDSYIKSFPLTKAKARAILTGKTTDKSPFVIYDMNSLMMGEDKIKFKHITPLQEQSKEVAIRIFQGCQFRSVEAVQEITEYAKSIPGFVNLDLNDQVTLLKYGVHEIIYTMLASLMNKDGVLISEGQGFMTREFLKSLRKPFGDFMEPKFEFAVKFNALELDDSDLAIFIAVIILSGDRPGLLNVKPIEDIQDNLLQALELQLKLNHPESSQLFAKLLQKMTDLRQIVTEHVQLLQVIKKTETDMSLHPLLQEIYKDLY

[4] = system: primary mouse astrocytes; assay: Cytotoxicity assay (EZ-Cytox) in primary mouse astrocytes; conditions: up to 30 μM, 24 h

Structure (SMILES) | EC50 ([1]; co-transfection assay, CV-1 cells, 24 h, read-out: Potency (EC50) hPPARδ) [µM] | Selectivity index hPPARα/hPPARδ ([1]; ratio EC50(hPPARα)/EC50(hPPARδ)) | Selectivity index hPPARγ/hPPARδ ([1]; ratio EC50(hPPARγ)/EC50(hPPARδ)) | EC50 [2] [µM] | EC50 [3] [µM] | Cytotoxicity in primary astrocytes [4]
Cc1cc([Se]Cc2[se]c(-c3ccc(C(F)(F)F)cc3)nc2C)ccc1OCC(=O)O [Compound 5b, {2-Methyl-4-[4-methyl-2-(4-trifluoromethyl-phenyl)-selenazol-5-yl-methylselanyl]-phenoxy}-acetic acid] | 0.0043 | >2300 | >2300 | > 10 | > 10 | –
Cc1cc(SCc2sc(-c3ccc(C(F)(F)F)cc3)nc2C)ccc1OCC(=O)O [GW501516, reference compound] | – | – | – | – | – | no cytotoxicity

Source: article PMC11488110 (Theranostics, 2024)
